Measurements reported in article PMC10952572, “Improved PIEZO1 agonism through 4‐benzoic acid modification of Yoda1” (British Journal of Pharmacology, 2023).

Legend:
[1] = Kinetic and thermodynamic solubility assays (Malvern Panalytical); type: physicochemical; conditions: phosphate buffer, physiological pH 7.4; compared with Yoda1
Procedure: Kinetic and thermodynamic solubility assays were also performed by Malvern Panalytical (UK). Briefly, 1000 μl of 0.1 M phosphate buffer (pH 7.4) received either 25 μl of a 10 mM DMSO stock of test compound (for kinetic solubility assays) or 1 mg of test compound (for thermodynamic solubility assays). The mixtures were shaken on an orbital mixer to reach equilibrium for 1 or 24 h, respectively. The equilibrated solution was centrifuged, and the supernatant was removed to a fresh vial and then re‐centrifuged. High‐ and low‐dilution samples were prepared from the secondary supernatant and quantified by LC–MS/MS against a standard curve.

[2] = Plasma protein binding by rapid equilibrium dialysis; type: in vitro ADME; conditions: RED
Procedure: Mouse plasma protein binding was measured by rapid equilibrium dialysis (RED) performed by Malvern Panalytical (UK). Briefly, mouse plasma was warmed to 37°C for 10 min, and test compound stock solution was added to achieve a 5 μM solution; 500 μl of dialysis buffer was added to one side of the chamber of the device insert (Piercenet, Dialysis membrane MWCO 8000) housed within a heated Teflon block, and the incubation was initiated by the addition of 300 μl of the test compound protein solution to the opposite chamber. Equilibrium was reached by shaking the device on an orbital mixer at 37°C for 4 h; 50 μl aliquots from the buffer and the plasma chambers were transferred into separate wells of a deep‐well plate; 50 μl of plasma was added to the buffer samples, and 50 μl of buffer was added to the plasma samples; 300 μl of ice‐cold acetonitrile containing internal standard was added to precipitate the protein. Samples were then centrifuged (2700 × g at 4°C for 20 min) to pellet the protein, and the supernatant was analysed by LC–MS/MS to quantify the % input compound unbound to plasma protein with reference to a standard curve.

[3] = biological target: T1, hPIEZO1 (Homo sapiens, UniProt Q92508); assay: Automated patch clamp (SyncroPatch 384) on hPIEZO1-TREx cells; type: cell-based; conditions: for Effect on M-Stim-evoked currents: hPIEZO1-TREx cells, −80 mV; for Cells responding to activation: hPIEZO1-TREx, 10 μM KC157, 10 μM Yoda1, 5 μM KC159
T1 construct: expressed in transfected cells
T1 sequence (Q92508 whole entry): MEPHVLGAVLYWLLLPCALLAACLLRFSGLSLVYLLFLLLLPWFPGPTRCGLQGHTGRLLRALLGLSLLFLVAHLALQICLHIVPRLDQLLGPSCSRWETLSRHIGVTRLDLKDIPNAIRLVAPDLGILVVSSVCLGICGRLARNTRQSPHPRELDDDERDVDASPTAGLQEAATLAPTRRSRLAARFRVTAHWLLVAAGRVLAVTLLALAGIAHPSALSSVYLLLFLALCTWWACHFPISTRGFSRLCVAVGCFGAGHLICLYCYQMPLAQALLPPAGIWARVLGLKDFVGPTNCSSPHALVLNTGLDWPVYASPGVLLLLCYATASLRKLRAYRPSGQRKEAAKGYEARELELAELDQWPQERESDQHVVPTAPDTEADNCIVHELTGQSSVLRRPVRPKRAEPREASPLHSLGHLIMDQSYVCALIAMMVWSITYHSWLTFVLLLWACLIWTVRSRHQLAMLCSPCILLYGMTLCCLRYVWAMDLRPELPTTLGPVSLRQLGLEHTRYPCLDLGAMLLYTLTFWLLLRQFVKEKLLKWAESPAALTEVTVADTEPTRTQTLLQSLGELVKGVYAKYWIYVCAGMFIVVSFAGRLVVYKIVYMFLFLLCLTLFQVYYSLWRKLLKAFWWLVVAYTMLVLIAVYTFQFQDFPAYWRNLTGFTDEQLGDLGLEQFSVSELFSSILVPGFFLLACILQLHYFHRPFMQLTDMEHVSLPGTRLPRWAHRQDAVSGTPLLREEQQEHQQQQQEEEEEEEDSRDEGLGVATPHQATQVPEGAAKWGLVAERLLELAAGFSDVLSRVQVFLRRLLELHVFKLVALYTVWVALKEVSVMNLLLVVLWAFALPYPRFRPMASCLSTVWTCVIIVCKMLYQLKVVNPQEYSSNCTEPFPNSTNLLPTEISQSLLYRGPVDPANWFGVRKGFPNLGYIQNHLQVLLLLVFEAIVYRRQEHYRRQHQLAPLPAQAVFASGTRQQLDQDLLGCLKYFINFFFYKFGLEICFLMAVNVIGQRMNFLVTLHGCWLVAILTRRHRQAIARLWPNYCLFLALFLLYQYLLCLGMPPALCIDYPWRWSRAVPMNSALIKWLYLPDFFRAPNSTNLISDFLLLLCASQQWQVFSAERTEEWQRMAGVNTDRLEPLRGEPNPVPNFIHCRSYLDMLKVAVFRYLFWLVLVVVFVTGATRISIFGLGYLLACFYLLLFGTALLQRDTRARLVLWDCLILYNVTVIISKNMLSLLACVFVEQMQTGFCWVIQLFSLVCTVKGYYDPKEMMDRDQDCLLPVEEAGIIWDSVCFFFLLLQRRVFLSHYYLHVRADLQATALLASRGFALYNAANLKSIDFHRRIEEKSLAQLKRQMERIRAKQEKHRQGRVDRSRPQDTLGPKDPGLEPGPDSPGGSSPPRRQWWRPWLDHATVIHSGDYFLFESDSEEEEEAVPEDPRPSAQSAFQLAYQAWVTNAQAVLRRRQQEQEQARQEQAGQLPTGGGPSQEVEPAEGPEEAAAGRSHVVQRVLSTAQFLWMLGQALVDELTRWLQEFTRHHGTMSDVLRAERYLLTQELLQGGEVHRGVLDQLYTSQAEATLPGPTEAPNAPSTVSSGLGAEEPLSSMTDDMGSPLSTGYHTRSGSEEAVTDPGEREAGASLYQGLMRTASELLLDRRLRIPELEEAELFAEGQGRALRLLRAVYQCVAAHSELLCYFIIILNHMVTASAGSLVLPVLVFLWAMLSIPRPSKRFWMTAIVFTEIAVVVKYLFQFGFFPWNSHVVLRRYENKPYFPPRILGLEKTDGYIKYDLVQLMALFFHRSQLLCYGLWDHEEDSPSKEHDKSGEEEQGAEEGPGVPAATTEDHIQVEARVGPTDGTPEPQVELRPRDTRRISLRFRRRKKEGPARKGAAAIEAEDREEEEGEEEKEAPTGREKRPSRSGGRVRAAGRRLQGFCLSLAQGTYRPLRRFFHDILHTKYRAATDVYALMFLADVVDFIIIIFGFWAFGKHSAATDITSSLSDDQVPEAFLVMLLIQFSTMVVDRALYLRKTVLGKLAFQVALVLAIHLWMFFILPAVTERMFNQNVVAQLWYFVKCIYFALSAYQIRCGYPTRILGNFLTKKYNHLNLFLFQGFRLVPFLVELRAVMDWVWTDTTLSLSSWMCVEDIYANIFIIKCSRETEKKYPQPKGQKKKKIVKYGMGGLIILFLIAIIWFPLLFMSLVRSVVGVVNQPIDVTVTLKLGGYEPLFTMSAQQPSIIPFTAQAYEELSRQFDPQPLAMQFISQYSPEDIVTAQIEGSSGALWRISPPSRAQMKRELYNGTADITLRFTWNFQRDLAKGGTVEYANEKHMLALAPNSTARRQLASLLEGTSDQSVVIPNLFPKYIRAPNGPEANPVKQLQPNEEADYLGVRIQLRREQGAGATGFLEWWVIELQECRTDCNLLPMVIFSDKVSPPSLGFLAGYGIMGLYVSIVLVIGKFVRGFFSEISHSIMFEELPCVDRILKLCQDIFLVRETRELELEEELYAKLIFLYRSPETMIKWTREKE
Procedure: (§1) For automated patch clamp, cells were cultured and harvested according to Nanion's standard cell culture protocol (Obergrussberger et al., [2014]). hPIEZO1‐TREx cells were induced to express PIEZO1 by incubation with 0.5 μg·ml^−1 tetracycline 24 h prior to experiments. Whole‐cell patch‐clamp recordings were conducted on HEK‐TREx, hPIEZO1‐TREx and mPIEZO1‐TREx cells according to Nanion's standard procedure for the SyncroPatch 384, using medium resistance (4–5 MΩ) chips (Obergrussberger et al., [2018]). Cells were held at −80 mV for the duration of the experiment. The channel was activated by mechanical forces in the absence and presence of the agonists. To stimulate PIEZO1 channels mechanically (mechanical stimulation [M‐Stim]), we dispensed 20 μl of solution (either reference or agonist) locally to the cell at a pipetting speed of 110 μl·s^−1 in synchrony with a triggered recording of the current response at the holding potential. The internal solution contained 110 mM KF, 10 mM KCl, 10 mM NaCl, 10 mM HEPES and 10 mM EGTA, pH adjusted to 7.2 with KOH, and the external solution contained 140 mM NaCl, 4 mM KCl, 2 mM CaCl2, 1 mM MgCl2, 5 mM glucose, 10 mM HEPES, pH adjusted to 7.4 with NaOH, and 0.1% DMSO to match the DMSO concentration of the compound solutions. For PIEZO1 stimulation, KC159, KC157 or Yoda1 was applied directly onto the cells via a pipette application. One chip of the SyncroPatch 384 is equipped with 384 wells served by 384 robotic pipettes and connected to 384 individual amplifiers, allowing us to test 384 distinct cells in one experiment. We tested the effect of each specified analogue on mPIEZO1‐, hPIEZO1‐ and untransfected HEK‐TREx cells in parallel and in comparison to mechanical and Yoda1 stimulation. To estimate the EC50 values, four concentrations of each agonist were tested per cell line in one chip, with each cell receiving single concentrations, and the concentration–response curve was calculated across the whole chip (384 cells). Only cells with seal resistance >0.3 GΩ, series resistance <20 MΩ and cell capacitance >5 and <40 pF were used for analysis.
(§2) DataControl 384 (Nanion Technologies GmbH), Prism 9 (GraphPad) and OriginPro 2020 (OriginLab) were used for all analysis of automated patch‐clamp data. For manual and automated patch‐clamp data, n represents the number of cells recorded from successfully in each experimental condition, sampled from two to six batches of cells or 384‐well chips in automated patch clamp. For manual patch‐clamp experiments, each cell/patch recording (n) is considered as an independent experiment because each was made independently at a separate time, using a separate coverslip of cells and using a separate patch pipette. In some instances, more than one such independent recording was made from the same batch of cultured or transfected cells. These n values are considered as independent. Each cell was studied alone and from a separate coverslip in the case for manual patch clamp. To estimate the EC50 values of the agonists in automated patch‐clamp studies, the peak current in the presence of the agonist was normalised to the peak current in the presence of the reference solution. Single‐point concentration–response curves were fitted with a standard Hill equation to estimate EC50 values. P < 0.05 was deemed significant. For automated patch‐clamp experiments, we included some data for n < 5 (Figure 7a,b). […] Such replicates are a feature of, and a rationale for, this automated technology, which is an innovation for the type of research shown here but already commonly used in the pharmaceutical industry for other ion channel studies to increase throughput and avoid waste from large volumes of independent cell cultures and minimise cost from expensive specially engineered plates. As a general strategy, our study used multiple independent technical approaches to address the same or similar questions. […]

[4] = biological target: T2, mPIEZO1 (Mus musculus, UniProt E2JF22); assay: Automated patch clamp (SyncroPatch 384) on mPIEZO1-TREx cells; type: cell-based; conditions: for Effect on M-Stim-evoked currents: mPIEZO1-TREx cells, −80 mV; for Cells responding to activation: mPIEZO1-TREx, 10 μM KC157, 10 μM Yoda1, 5 μM KC159
T2 construct: expressed in transfected cells
T2 sequence (E2JF22 whole entry): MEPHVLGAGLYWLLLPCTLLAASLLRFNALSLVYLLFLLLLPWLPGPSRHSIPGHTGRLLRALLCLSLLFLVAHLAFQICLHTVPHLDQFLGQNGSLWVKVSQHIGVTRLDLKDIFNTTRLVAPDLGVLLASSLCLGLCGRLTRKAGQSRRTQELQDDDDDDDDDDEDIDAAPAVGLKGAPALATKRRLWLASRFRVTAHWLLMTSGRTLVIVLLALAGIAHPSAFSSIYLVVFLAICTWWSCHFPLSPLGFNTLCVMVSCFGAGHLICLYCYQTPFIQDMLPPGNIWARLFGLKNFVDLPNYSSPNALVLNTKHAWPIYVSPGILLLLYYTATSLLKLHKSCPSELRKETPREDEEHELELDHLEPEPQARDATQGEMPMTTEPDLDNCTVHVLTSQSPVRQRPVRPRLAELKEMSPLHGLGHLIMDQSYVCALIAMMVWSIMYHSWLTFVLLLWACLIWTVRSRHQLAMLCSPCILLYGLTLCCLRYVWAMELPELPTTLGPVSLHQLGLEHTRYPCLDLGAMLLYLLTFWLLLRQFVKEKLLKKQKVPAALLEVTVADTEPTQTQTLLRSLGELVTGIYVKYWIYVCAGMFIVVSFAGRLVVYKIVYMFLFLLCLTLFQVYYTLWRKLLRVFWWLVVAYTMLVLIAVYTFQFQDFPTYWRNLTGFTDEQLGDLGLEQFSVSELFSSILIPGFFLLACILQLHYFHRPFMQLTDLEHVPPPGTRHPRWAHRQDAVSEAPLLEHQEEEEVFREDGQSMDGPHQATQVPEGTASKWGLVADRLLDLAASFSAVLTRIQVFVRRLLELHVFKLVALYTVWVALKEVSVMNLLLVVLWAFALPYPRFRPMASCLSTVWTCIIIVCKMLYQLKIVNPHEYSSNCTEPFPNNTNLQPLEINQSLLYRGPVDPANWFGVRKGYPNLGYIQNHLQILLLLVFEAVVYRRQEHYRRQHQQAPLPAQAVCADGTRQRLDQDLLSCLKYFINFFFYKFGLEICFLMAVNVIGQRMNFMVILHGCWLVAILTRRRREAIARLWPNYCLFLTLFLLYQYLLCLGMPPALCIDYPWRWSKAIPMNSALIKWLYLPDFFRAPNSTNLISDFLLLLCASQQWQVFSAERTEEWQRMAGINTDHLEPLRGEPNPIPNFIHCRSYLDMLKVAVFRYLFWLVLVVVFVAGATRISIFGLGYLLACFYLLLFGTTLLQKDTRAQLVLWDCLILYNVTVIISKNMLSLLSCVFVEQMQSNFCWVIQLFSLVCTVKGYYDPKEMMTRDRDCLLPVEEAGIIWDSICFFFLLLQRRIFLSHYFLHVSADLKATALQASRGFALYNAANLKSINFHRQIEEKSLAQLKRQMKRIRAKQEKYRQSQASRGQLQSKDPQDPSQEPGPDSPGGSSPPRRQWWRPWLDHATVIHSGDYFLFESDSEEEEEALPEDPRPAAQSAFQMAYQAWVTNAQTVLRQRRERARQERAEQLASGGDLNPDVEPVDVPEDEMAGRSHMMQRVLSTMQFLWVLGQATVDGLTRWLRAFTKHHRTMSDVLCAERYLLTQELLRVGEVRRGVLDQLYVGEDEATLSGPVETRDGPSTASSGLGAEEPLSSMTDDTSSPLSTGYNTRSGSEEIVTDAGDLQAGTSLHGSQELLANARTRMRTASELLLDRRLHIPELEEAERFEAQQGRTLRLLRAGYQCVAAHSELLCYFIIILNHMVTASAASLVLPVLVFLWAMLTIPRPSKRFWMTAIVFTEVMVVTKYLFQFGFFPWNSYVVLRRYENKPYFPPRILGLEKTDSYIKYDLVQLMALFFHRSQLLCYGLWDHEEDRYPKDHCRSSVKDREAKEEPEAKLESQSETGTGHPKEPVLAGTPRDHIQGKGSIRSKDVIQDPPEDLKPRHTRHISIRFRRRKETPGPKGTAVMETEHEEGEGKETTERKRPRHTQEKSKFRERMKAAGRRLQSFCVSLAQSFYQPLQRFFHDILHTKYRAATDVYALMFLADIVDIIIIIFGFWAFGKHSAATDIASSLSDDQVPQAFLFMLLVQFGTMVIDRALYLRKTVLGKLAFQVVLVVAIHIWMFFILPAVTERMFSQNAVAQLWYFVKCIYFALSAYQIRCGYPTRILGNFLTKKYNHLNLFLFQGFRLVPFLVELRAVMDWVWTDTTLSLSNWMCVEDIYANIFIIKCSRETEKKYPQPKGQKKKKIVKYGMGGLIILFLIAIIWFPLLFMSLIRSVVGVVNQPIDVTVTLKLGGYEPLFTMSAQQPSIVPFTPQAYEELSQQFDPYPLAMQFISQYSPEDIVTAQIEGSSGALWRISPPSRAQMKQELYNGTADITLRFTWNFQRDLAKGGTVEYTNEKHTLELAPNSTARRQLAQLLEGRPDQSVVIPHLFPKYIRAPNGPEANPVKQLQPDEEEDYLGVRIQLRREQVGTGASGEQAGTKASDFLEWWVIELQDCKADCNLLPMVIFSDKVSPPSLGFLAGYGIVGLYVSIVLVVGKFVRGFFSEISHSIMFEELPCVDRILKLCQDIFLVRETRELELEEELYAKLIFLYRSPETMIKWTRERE
Procedure: as §1, §2

| SMILES | Kinetic solubility [1] | Thermodynamic solubility [1] | Fraction bound to plasma proteins ([2]; mouse plasma, 5 μM) | Effect on M-Stim-evoked currents ([3]; 10 μM) | Cells responding to activation [3] | Effect on M-Stim-evoked currents ([4]; 10 μM) | Cells responding to activation [4] | fraction unbound at 4 h, 5 μM ([2]; mouse, plasma, read-out: Fraction bound to plasma proteins (converted)) | Sustained component of current as % of peak current ([3]; 10 μM, hPIEZO1 cells, mean ± SD) | EC50 ([3]; hPIEZO1, normalised peak current, maximum response not certain, read-out: EC50 (estimate)) | Sustained component of current as % of the peak current amplitude ([4]; 10 μM, mPIEZO1 cells, mean ± SD) | EC50 ([4]; mouse PIEZO1, normalised peak current, maximum response not certain, read-out: EC50 (estimate)) |
| --- | --- | --- | --- | --- | --- | --- | --- | --- | --- | --- | --- | --- |
| O=C([O-])c1ccc(-c2nnc(SCc3c(Cl)cccc3Cl)s2)cc1.[K+] [KC289] | better solubility than Yoda1 | better solubility than Yoda1 | 99.35% |  |  |  |  |  |  |  |  |  |
| O=C(O)c1ccccc1-c1nnc(SCc2c(Cl)cccc2Cl)s1 [KC157] |  |  |  | mostly fails to evoke responses | largely ineffective | mostly fails to evoke responses | largely ineffective |  |  |  |  |  |
| O=C(O)c1ccc(-c2nnc(SCc3c(Cl)cccc3Cl)s2)cc1 [KC159] | better solubility than Yoda1 | better solubility than Yoda1 |  | greatly amplifies the currents | more cells to respond compared with Yoda1 | greatly amplifies the currents | more cells to respond compared with Yoda1 | 0.006 | −4 ± 2% | ~1670 nM | 26 ± 8% | ~1540 nM |
